Assay results from ChEMBL document CHEMBL3991601, “The target landscape of clinical kinase drugs” (Science, 2017).
The source made the active and inactive calls.

Experiments:
[1] = target: Protein kinase C alpha type (Homo sapiens, UniProt P17252)
[2] = target: Epithelial discoidin domain-containing receptor 1 (Homo sapiens, UniProt Q08345)
[3] = target: Elongation factor Tu, mitochondrial (Homo sapiens, UniProt P49411)
[4] = target: Protein-tyrosine kinase 6 (Homo sapiens, UniProt Q13882)
GTP-binding protein 4 = GTP-binding protein 4 (Homo sapiens, UniProt Q9BZE4)
[5] = target: Mitogen-activated protein kinase 9 (Homo sapiens, UniProt P45984)
[6] = target: T1, Glycogen phosphorylase, brain form (Homo sapiens, UniProt P11216)
T1 sequence (P11216 whole entry): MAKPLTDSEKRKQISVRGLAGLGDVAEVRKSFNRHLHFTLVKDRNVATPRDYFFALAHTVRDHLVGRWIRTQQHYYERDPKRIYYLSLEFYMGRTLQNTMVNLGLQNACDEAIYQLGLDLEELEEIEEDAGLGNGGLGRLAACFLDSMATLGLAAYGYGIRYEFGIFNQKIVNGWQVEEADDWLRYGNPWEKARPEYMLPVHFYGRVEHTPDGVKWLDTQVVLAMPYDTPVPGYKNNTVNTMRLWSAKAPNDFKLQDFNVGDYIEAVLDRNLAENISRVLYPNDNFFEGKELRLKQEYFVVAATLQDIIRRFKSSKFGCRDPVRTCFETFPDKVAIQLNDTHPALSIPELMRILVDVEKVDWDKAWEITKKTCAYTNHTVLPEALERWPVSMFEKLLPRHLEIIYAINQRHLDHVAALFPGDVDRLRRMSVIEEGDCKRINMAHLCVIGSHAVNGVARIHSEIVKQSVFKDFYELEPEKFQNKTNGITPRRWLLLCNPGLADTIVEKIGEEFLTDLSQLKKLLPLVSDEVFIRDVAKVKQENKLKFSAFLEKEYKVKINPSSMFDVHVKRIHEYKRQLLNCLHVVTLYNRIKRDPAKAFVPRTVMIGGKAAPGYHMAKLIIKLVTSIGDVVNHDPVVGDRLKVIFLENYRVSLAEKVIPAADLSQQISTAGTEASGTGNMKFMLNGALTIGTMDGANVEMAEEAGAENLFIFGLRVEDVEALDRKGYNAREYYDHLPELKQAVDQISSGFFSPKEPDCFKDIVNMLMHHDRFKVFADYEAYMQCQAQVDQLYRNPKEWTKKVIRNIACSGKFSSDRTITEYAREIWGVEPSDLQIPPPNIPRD

[7] = target: T2, DNA replication licensing factor MCM4 (Homo sapiens, UniProt P33991)
T2 sequence (P33991 whole entry): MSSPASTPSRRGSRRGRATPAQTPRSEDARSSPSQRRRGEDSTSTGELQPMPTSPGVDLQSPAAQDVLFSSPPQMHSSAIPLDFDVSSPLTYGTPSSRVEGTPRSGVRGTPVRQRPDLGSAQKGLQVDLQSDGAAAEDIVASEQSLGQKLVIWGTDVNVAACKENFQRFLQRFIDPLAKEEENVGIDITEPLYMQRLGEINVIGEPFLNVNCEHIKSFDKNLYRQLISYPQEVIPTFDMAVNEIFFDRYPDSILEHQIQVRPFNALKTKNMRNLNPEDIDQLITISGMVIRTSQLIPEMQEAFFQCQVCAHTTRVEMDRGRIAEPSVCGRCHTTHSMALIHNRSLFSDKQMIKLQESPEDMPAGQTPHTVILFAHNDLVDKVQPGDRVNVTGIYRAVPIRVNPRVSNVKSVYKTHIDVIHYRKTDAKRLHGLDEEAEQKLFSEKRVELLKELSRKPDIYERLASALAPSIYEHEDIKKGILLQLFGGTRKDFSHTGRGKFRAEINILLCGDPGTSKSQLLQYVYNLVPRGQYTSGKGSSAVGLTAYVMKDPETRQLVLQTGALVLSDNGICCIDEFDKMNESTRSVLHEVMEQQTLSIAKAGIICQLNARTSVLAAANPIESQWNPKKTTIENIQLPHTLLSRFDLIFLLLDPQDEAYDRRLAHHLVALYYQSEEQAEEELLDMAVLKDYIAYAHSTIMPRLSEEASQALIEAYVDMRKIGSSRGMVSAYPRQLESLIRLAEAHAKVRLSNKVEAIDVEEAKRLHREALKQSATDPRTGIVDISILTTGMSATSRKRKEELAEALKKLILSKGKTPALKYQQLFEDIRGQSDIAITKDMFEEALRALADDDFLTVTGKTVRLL

[8] = target: Cyclin-dependent kinase 7 (Homo sapiens, UniProt P50613)
Myosin-10 = Myosin-10 (Homo sapiens, UniProt P35580)
[9] = target: Mitogen-activated protein kinase 8 (Homo sapiens, UniProt P45983)
[10] = target: PAS domain-containing serine/threonine-protein kinase (Homo sapiens, UniProt Q96RG2)

Measured: Kd
Note: in the data inactive means no Kd found up to 30 µM.

Epithelial discoidin domain-containing receptor 1, sequence (Q08345 whole entry, the tested form may be a part): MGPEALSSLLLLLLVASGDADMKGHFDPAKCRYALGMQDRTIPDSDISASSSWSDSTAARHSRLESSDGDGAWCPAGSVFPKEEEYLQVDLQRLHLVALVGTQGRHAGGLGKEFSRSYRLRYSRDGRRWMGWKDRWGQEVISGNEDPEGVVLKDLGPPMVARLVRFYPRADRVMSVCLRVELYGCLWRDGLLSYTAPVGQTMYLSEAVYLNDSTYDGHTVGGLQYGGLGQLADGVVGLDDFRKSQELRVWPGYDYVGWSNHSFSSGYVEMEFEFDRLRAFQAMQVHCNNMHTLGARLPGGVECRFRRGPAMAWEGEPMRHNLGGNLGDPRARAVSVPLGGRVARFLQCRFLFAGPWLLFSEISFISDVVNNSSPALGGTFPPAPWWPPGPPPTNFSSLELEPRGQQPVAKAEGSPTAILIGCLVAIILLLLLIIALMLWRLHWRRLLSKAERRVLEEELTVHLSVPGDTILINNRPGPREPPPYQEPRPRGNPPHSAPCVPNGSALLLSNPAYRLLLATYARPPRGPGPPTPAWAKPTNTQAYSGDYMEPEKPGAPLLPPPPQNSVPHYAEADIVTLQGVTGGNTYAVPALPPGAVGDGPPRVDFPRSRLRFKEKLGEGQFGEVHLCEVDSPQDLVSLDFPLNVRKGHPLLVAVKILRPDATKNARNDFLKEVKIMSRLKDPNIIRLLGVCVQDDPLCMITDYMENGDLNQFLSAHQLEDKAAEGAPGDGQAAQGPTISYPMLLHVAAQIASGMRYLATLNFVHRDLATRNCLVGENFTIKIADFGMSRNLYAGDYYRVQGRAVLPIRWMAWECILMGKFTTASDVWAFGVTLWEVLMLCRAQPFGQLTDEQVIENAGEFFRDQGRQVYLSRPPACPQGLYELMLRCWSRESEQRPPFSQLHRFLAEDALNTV
PAS domain-containing serine/threonine-protein kinase, sequence (Q96RG2 whole entry, the tested form may be a part): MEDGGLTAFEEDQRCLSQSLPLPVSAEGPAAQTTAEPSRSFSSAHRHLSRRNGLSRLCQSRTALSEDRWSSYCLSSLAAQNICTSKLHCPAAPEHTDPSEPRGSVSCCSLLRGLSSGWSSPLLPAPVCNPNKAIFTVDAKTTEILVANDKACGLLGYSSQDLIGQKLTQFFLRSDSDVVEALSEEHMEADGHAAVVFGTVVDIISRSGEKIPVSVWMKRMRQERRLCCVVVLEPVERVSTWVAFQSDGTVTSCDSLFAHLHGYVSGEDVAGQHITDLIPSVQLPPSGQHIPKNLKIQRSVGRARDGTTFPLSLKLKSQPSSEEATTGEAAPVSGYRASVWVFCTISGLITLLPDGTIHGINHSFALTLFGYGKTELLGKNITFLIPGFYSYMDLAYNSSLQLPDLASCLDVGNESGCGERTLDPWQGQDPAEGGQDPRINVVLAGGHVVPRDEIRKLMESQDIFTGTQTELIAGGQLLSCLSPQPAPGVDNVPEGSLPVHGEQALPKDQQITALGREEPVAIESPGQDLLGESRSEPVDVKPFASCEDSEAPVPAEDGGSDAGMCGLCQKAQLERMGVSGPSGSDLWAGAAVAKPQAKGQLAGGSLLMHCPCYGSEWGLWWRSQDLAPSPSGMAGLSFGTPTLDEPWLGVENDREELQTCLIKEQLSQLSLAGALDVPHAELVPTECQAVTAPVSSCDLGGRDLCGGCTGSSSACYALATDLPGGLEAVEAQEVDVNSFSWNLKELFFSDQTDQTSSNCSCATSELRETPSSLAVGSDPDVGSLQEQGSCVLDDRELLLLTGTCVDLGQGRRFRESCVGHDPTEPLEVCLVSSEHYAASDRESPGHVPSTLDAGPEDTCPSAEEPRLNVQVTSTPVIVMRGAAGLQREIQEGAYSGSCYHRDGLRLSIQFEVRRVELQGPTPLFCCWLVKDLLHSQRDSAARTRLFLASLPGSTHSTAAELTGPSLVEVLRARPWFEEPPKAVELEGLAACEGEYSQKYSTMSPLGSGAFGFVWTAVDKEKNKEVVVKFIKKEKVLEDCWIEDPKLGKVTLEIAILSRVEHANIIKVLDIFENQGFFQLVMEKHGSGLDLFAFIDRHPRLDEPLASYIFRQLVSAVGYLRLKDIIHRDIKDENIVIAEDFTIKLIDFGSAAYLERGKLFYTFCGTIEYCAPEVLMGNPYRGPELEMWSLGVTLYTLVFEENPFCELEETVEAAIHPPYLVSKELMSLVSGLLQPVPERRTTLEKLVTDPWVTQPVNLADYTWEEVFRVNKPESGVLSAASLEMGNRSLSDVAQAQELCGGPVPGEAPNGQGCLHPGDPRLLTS
Myosin-10, sequence (P35580 whole entry): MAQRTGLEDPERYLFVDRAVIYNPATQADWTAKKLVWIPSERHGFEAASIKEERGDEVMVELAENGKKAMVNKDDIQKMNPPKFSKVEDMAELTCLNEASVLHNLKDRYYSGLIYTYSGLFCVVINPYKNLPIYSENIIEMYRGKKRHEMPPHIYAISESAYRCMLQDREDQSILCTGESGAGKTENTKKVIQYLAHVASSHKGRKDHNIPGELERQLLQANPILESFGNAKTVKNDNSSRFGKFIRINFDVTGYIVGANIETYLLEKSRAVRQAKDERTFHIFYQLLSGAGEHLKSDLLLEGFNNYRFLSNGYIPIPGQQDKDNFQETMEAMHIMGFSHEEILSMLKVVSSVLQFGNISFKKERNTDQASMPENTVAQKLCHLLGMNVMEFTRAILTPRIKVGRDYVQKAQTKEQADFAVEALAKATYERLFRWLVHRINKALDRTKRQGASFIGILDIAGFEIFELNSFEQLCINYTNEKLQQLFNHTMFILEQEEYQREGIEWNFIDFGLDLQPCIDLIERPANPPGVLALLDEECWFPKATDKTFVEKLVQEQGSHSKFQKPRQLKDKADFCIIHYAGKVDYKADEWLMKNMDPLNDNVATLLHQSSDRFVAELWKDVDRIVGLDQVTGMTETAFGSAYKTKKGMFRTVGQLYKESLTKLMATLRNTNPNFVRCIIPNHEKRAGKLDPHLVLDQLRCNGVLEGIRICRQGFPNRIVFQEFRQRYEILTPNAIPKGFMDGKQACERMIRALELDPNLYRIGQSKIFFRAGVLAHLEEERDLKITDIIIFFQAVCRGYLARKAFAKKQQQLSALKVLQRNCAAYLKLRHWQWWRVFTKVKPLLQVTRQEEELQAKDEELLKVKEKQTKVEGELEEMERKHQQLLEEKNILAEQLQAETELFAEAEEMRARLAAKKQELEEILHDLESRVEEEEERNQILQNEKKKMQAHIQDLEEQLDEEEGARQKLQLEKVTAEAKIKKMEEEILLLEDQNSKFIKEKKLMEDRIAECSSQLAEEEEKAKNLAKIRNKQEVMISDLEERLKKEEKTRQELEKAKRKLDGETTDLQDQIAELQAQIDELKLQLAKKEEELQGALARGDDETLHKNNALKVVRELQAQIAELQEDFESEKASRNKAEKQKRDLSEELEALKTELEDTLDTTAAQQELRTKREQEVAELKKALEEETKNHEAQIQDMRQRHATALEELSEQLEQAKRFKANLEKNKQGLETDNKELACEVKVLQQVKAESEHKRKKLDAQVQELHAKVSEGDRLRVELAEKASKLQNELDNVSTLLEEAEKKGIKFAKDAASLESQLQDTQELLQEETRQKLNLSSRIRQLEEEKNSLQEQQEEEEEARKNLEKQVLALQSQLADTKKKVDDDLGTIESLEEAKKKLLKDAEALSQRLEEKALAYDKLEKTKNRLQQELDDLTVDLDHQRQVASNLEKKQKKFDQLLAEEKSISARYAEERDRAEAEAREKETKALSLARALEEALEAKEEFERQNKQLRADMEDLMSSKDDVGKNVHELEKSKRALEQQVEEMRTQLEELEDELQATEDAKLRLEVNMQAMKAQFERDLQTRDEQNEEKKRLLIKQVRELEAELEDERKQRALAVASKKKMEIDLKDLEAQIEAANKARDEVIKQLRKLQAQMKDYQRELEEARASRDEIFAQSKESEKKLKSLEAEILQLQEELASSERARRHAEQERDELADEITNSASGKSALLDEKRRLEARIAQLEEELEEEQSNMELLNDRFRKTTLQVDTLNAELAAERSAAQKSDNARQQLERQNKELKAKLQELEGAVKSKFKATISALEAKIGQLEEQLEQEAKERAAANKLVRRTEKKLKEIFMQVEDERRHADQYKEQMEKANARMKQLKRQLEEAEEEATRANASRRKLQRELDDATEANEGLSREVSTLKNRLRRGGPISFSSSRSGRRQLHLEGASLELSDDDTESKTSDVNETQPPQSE
Mitogen-activated protein kinase 8, sequence (P45983 whole entry, the tested form may be a part): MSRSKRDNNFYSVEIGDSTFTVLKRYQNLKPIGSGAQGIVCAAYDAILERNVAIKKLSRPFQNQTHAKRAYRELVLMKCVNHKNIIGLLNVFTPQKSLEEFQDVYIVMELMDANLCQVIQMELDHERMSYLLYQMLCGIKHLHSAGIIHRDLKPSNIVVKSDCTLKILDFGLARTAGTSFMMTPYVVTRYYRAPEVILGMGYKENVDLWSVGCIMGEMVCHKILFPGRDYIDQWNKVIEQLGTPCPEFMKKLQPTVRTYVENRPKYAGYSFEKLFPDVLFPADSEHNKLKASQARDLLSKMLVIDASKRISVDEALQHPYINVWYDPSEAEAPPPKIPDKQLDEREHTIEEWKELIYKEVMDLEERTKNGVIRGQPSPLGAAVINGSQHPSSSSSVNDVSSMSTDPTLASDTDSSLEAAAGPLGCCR
Protein-tyrosine kinase 6, sequence (Q13882 whole entry): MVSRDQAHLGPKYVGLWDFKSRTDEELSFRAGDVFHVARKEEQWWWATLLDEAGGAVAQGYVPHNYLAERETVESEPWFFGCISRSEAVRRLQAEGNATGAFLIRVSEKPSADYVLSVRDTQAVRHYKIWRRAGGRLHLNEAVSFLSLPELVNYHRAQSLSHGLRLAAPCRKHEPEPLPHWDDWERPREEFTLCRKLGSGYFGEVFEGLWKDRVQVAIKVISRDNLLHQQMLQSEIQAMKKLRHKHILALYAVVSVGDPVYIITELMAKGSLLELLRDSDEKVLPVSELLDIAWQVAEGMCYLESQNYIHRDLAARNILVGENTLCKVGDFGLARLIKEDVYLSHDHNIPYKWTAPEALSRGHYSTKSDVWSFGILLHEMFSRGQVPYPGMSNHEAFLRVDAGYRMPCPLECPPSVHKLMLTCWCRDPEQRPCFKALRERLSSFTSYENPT

CNC(=O)c1cccc2cc(Oc3ccnc4cc(OCC5(N)CC5)c(OC)cc34)ccc12 [LUCITANIB]
inactive: [1] > 30 µM | [3] > 30 µM | [4] > 30 µM | GTP-binding protein 4 > 30 µM | [5] > 30 µM | [6] > 30 µM | [7] > 30 µM | [8] > 30 µM | Myosin-10 > 30 µM | [9] > 30 µM
active: [2] 0.014 µM

CN(C[C@@H]1COCCO1)S(=O)(=O)Nc1ccc2ccc3ncc(-c4cnn(C)c4)cc3c(=O)c2c1 [MK-2461]
active: [5] 1.93 µM
inactive: [1] > 30 µM | [2] > 30 µM | [3] > 30 µM | [4] > 30 µM | GTP-binding protein 4 > 30 µM | [6] > 30 µM | [7] > 30 µM | [8] > 30 µM | Myosin-10 > 30 µM | [9] > 30 µM

Cc1nc(Nc2n[nH]c3c2CN(C(=O)N[C@H](CN(C)C)c2ccccc2)C3(C)C)c2sccc2n1 [PF-03758309]
active: [1] 0.873 µM | [8] 0.003 µM
inactive: [2] > 30 µM | [3] > 30 µM | [4] > 30 µM | GTP-binding protein 4 > 30 µM | [5] > 30 µM | [6] > 30 µM | [7] > 30 µM | [10] > 30 µM | [9] > 30 µM

CC(=O)NCC(=O)N1[C@@H]2CC[C@H]1c1ccc(Nc3ncc(C(F)(F)F)c(NC4CCC4)n3)cc12 [PF-03814735]
inactive: [1] > 30 µM | [2] > 30 µM | [3] > 30 µM | [6] > 30 µM | [7] > 30 µM | Myosin-10 > 30 µM | [10] > 30 µM

CO[C@H]1C[C@@H]2CC[C@@H](C)[C@@](O)(O2)C(=O)C(=O)N2CCCC[C@H]2C(=O)O[C@H]([C@H](C)C[C@@H]2CC[C@@H](OP(C)(C)=O)[C@H](OC)C2)CC(=O)[C@H](C)/C=C(\C)[C@@H](O)[C@@H](OC)C(=O)[C@H](C)C[C@H](C)/C=C/C=C/C=C/1C [RIDAFOROLIMUS]
inactive: [1] > 30 µM | [2] > 30 µM | [3] > 30 µM | [4] > 30 µM | GTP-binding protein 4 > 30 µM | [5] > 30 µM | [6] > 30 µM | [7] > 30 µM | [8] > 30 µM | Myosin-10 > 30 µM | [9] > 30 µM

O=c1[nH]ccc2cc(OC3CCNCC3)ccc12 [SAR-407899 FREE BASE]
inactive: [1] > 30 µM | [2] > 30 µM | [3] > 30 µM | [4] > 30 µM | GTP-binding protein 4 > 30 µM | [5] > 30 µM | [6] > 30 µM | [7] > 30 µM | [8] > 30 µM | [10] > 30 µM | [9] > 30 µM

O=C1NC(=O)[C@@H](c2cn3c4c(cccc24)CCC3)[C@@H]1c1c[nH]c2ccccc12 [TIVANTINIB]
inactive: [1] > 30 µM | [2] > 30 µM | [3] > 30 µM | [4] > 30 µM | GTP-binding protein 4 > 30 µM | [5] > 30 µM | [6] > 30 µM | [7] > 30 µM | [8] > 30 µM | [10] > 30 µM | [9] > 30 µM

Cn1ncc(Cl)c1-c1cc(C(=O)N[C@H](CN)Cc2ccc(F)c(F)c2)oc1Cl [UPROSERTIB]
inactive: [2] > 30 µM | [3] > 30 µM | [4] > 30 µM | GTP-binding protein 4 > 30 µM | [5] > 30 µM | [6] > 30 µM | Myosin-10 > 30 µM | [9] > 30 µM
active: [1] 1.67 µM
